Laboratory results as given in patent US8883170B2 (priority 2008, dated 2014).
Read-outs that look alike come from different tables or passages of the source.

Assays:
humans = details: in humans; cited from earlier work
BALB/c mice = details: for overall toxicity conclusion: acute toxicity study in mice; for 7-Day Survival Males: male mice; for observations in treated animals: mice
spleen cells = experiment: Immunogenicity study with rHA: lymphoproliferation of restimulated spleen cells (3H-TdR incorporation); type: in vivo, BALB/c mice; details: mice immunized with compound 100 μg + rHA 5 μg; for Lymphoproliferation Con A: restimulated with concanavalin A 4 days; for Lymphoproliferation Medium: restimulated with medium (background) 4 days; for Lymphoproliferation rHA: restimulated with rHA 4 days
[1] = test system: recombinant hemagglutinin antigen (rHA) of influenza A; type: in vivo; details: compound 100 μg + rHA 5 μg; for Anti-rHA Titer IgG1 / Anti-rHA Titer IgG2a / Anti-rHA Titer IgG2b: s.c. Days 1 and 22, serum Day 43; for Anti-rHA Titer Total IgG: s.c. Days 1 and 22, serum Day 43, BALB/c mice
[2] = single s.c. dose 250 μg, female mice
[3] = single s.c. dose 500 μg, female mice
[4] = single s.c. dose 1 mg, female mice
[5] = single s.c. dose 2 mg, female mice
[6] = single s.c. dose 4 mg in DMSO, female mice

Compound | overall toxicity conclusion (BALB/c mice) | 7-Day Survival Females (BALB/c mice; [2]) | 7-Day Survival Males (BALB/c mice; single s.c. dose 250 μg) | 7-Day Survival Females (BALB/c mice; [3]) | 7-Day Survival Males (BALB/c mice; single s.c. dose 500 μg) | 7-Day Survival Females (BALB/c mice; [4]) | 7-Day Survival Males (BALB/c mice; single s.c. dose 1 mg) | 7-Day Survival Females (BALB/c mice; [5]) | 7-Day Survival Males (BALB/c mice; single s.c. dose 2 mg) | 7-Day Survival Females (BALB/c mice; [6]) | 7-Day Survival Males (BALB/c mice; single s.c. dose 4 mg in DMSO) | observations in treated animals (BALB/c mice; single s.c. injection) | Lymphoproliferation Con A (spleen cells) | Lymphoproliferation Medium (spleen cells) | Lymphoproliferation rHA (spleen cells) | Anti-rHA Titer IgG1 [1] | Anti-rHA Titer IgG2a [1] | Anti-rHA Titer IgG2b [1] | Anti-rHA Titer Total IgG [1] | also measured
QS-21 |  |  |  |  |  |  |  |  |  |  |  |  |  |  |  |  |  |  |  | dose associated with significant local reactions (humans): ≥ 200 µg
CC1(C)CC[C@]2(C(=O)O)CC[C@]3(C)C(=CC[C@@H]4[C@@]5(C)CC[C@H](O)[C@@](C)(C=O)[C@@H]5CC[C@]43C)[C@@H]2C1 [Gypsogenin, gypsogenin, reference compound] | general lack of toxicity | 100% | 100% | 100% | 100% | 100% | 100% | 100% | 100% | 100% | 100% | lethargy, hair loss, and skin irritation at the injection site | 321,750 | 356 | 8507 | 3220 | 348 | 1118 | 1136 | stability on storage (TLC, purity checked periodically) (kept in cold (below −4° C.), 1 year): no change was observed; stability on storage (TLC) (room temperature storage): decomposition was seen
CCCCCCCCCCCCNC(=O)[C@]12CCC(C)(C)C[C@H]1C1=CCC3[C@@]4(C)CC[C@H](OC5OC(CO)C(O)C(O)C5O)[C@@](C)(C=O)C4CC[C@@]3(C)[C@]1(C)CC2 (stereo partly shown) [Saponin 1] | general lack of toxicity | 100% | 100% | 100% | 100% | 100% | 100% | 80% | 100% | 80% | 100% | lethargy, hair loss, and skin irritation at the injection site | 232,769 | 268 | 3696 | 29,100 | 446 | 2008 | 5130 | maximum tolerated dose (MTD) for females (BALB/c mice; single s.c. injection, female mice): 1 mg
CCCCCCCCCCCCNC(=O)C12CCC(C)(C)CC1C1=CCC3C4(C)CCC(O)C(C)(C=O)C4CCC3(C)C1(C)CC2 (stereo not shown) [Dodecyl genin, dodecylamide derivative of gypsogenin] | general lack of toxicity | 100% | 100% | 100% | 100% | 100% | 100% | 100% | 100% | 100% | 100% | lethargy, hair loss, and skin irritation at the injection site | 278,393 | 772 | 30,402 | 20,984 | 6600 | 1466 | 3418 | 
